The text below walks through data of PMC11703096 (PLOS ONE, 2025).

Data set [1] has as its target T1, A32WT (vaccinia virus A32, putative genome packaging ATPase) (Vaccinia virus WR, UniProt P68615, L234K/Q237A).
T1 construct: gene OPG160
Particulars: read-out: A32LL234K_Q237A / - / DNA.

For data set [2], the target named is T2, A32WT (vaccinia virus A32, putative genome packaging ATPase) (Vaccinia virus WR, UniProt P68615, K31A).
T2 construct: gene OPG160
Particulars: read-out: A32K31A / - / DNA.

The data set “native gel or EMSA” deals with the molecule itself. The data set is described as follows: native gel or EMSA. On the technique in general: In EMSA bound probe runs differently from free probe, usually more slowly.

`Nc1ncnc2c1ncn2[C@@H]1O[C@H](COP(=O)(O)OP(=O)(O)OP(=O)(O)O)[C@@H](O)[C@H]1O` [ATP]: the Km was 0.66 µM in data set [1] and 0.2 µM in data set [2].

B1: vaccinia virus A32 protein with an N-terminal thioredoxin tag and a C-terminal hexahistidine tag (A32WT) (enzyme)
chain: MNCFQEKQFSRENLLKMPFRMVLTGGSGSGKTIYLLSLFSTLVKKYKHIFLFTPVYNPDYDGYIWPNHINFVSSQESLEYNLIRTKSNIEKCIAVAQNHKKSAHFLLIFDDVGDKLSKCNTLIEFLNFGRHLNTSIILLCQTYRHVPILGRANITHFCSFNISISDAENMLRSMPVKGKRKDILNMLNMIQTARSNNRLAIIIEDSVFCEGELRICTDTADKDVIEQKLNIDILVNQYSHMKKNLNAILESKKTKLCNSDQSSSSKNVSS
For the molecule B1, the binding result in “native gel or EMSA” was “binds”.
